# Laboratory results published in patent publication US6605628B1, “Method of using 5-(arysulfonyl)-, 5-(arylsulfanyl)-and 5-(arylsulfanyl)thiazolidine-2,4-diones for inhibition of farnesyl-protein transferase” (Wyeth Holdings Corporation, priority 2001, dated 2003).
# Key:
# FPTase [1] = biological target: T1, FPTase (Homo sapiens, UniProt P49354+P49356); assay: in vitro FTase Inhibition Assay, H-Ras used as substrate for farnesylation; assay type: biochemical; settings: Table I, read-out: IC50 H-Ras*
# FPTase [2] = biological target: T1, FPTase; assay: in vitro FTase Inhibition Assay, K-Ras used as substrate for farnesylation; assay type: biochemical; settings: Table I
# [3] = system: K-ras dependent human colon carcinoma (LoVo); assay: in vivo effects against K-ras dependent human colon carcinoma (LoVo); settings: 1 mg/kg per dose IP, days 5, 9 and 13; control 0.5% Methocel 0.4% Tween 80
# Text: […] For the compound of example 114, when tested against a K-ras dependent human colon carcinoma (LoVo), the following results were obtained (Table III):
structure (smiles),measurement,setting,value
"COc1ccc(S(=O)(=O)C2(CCCC#Cc3cc(NC(=O)OCC(C)C)ccc3C)SC(=O)N(C(=O)OCC(C)C)C2=O)cc1 (stereo not drawn) [Example 232, Isobutyl 5-(5-{5-[(isobutoxycarbonyl)-amino]-2-methylphenyl}pent-4-ynyl)-5-[(4-methoxyphenyl)sulfonyl]-2,4-dioxo-1,3-thiazolidine-3-carboxylate]",IC50,FPTase [1],0.005 to 0.01 µM
same,IC50,FPTase [2],0.04 to 0.64 µM
"CC[C@]1(O)C[C@H]2CN(CCc3c([nH]c4ccccc34)[C@@](C(=O)OC)(c3cc4c(cc3OC)N(C=O)[C@H]3[C@@](O)(C(=O)OC)[C@H](OC(C)=O)[C@]5(CC)C=CCN6CC[C@]43[C@@H]65)C2)C1 [Vincristine, reference compound]","% T/C, Day8",[3],16%
same,"% T/C, Day 15",[3],8%
same,"% T/C, Day 22",[3],14%
same,"% T/C, Day 29",[3],19%
same,"% T/C, Day 36",[3],15%
same,"Mean Tumor Weight, Day8",[3],14 mg
same,"Mean Tumor Weight, Day 15",[3],24 mg
same,"Mean Tumor Weight, Day 22",[3],84 mg
same,"Mean Tumor Weight, Day 29",[3],139 mg
same,"Mean Tumor Weight, Day 36",[3],194 mg
